Reference: patent publication US5760036A, “Aminediol protease inhibitors” (E. R. Squibb & Sons, Inc., priority 1995, dated 1998)

How the values were obtained:
[1] = tested on: RF strain of HIV (CEM-SS cells); assay: Cell Culture Anti-HIV Activity (cell viability, formazan); assay type: cell-based; settings: Human immunodeficiency virus 1, CEM-SS, 144 h, CEM-SS cells, RF strain of HIV, multiplicity of infection 0.04, 6 days at 37° C., 450 nm; read-out: HIV (CEM Cells) IC50
Outline: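 Half-log compound dilutions added to CEM-SS cells (5000/well) carrying HIV RF (MOI 0.04), 6 days, 37° C. Cell protection measured as formazan from tetrazolium, A450. IC50: drug level restoring infected-cell formazan to 50% of the uninfected untreated control.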

HIV protease = target: T1, HIV protease (Human immunodeficiency virus type 1 group M subtype B, UniProt P04585); assay: HIV Protease Assay; assay type: biochemical; settings: pH 5.5, 10 μM inhibitor, 4% DMSO, 450 μM substrate, pH 5.5, 30 minutes at 37° C., RP-HPLC; read-out: HIV Protease % Inhibition at 10 μM
T1 construct: and purified protease
Outline: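 At a single final concentration of 10 μM (4% DMSO), inhibitors were added to a 30-minute, 37° C reaction of purified enzyme with 450 μM H2N-Val-Ser-Gln-Asn-(β-naphthyl-alanine)-Pro-Val-Ile-OH at pH 5.5 (sodium acetate, BSA). Hydrolysis was quantified by reverse-phase HPLC with 220 nm detection after acid quench.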

Structure (SMILES) | inhibition at 10 µM (HIV protease) [%] | IC50 [1] [nM]
COCCOc1ccc(C[C@H](NC(=O)OC(C)(C)C)[C@H](O)CNC[C@@H](O)[C@H](Cc2ccccc2)NC(=O)OC(C)(C)C)cc1 [Compound 224, [1S-[1R*,2S*(2S*,3R*)]]-[3-[[3-[[(1,1-Dimethylethoxy)carbonyl]amino]-2-hydroxy-4-[4-(2-methoxyethoxy)phenyl]butyl]amino]-2-hydroxy-1-(phenylmethyl)propyl]carbamic acid, 1,1-dimethylethyl ester] | 98 | 40
CC(C)[C@H](NC(=O)CNC(=O)OC(C)(C)C)C(=O)N[C@@H](Cc1ccccc1)[C@H](O)CNC[C@@H](O)[C@H](Cc1ccccc1)NC(=O)[C@@H](NC(=O)CNC(=O)OC(C)(C)C)C(C)C [Compound 99, [S-(1R*,2S*)]-N,N'-[Iminobis[2-hydroxy-1-(phenylmethyl)-3,1-propanediyl]]bis [N^2-[[[1,1-dimethylethoxy)carbonyl]-amino]acetyl]-L-valinamide]] | 99 | > 100000
CC(C)[C@H](NC(=O)c1ccc2ccccc2c1)C(=O)N[C@@H](Cc1ccccc1)[C@H](O)CNC[C@@H](O)[C@H](Cc1ccccc1)NC(=O)OC(C)(C)C [Compound 79, [S-[1R*,2S*(2S*,3R*)]]-N-[3-[[3-[[(1,1-Dimethylethoxy)carbonyl]amino]-2-hydroxy-4-phenylbutyl]amino]-2-hydroxy-1-(phenylmethyl)propyl]-N^2 (2-naphthalenylcarbonyl)-L-valinamide] | 99 | 400
CC(C)(C)OC(=O)N[C@@H](Cc1ccccc1)[C@@H](O)CNC[C@H](O)[C@H](Cc1ccccc1)NC(=O)OC(C)(C)C [Compound 3, [1S-[1R*,2R*(2R*,3R*)]]-[3-[[3-[[(1,1-Dimethylethoxy)carbonyl]amino]-2-hydroxy-4-phenylbutyl]amino]-2-hydroxy-1-(phenylmethyl)propyl]carbamic acid, 1,1-dimethylethyl ester] | 0 | > 3200
O=C(N[C@@H](Cc1ccccc1)[C@H](O)CNC[C@@H](O)[C@H](Cc1ccccc1)NC(=O)OCc1ccccc1)OCc1ccccc1 [Compound 44, [R-(R*,S*)]-Iminobis[2-hydroxy-1-(phenylmethyl)-3,1-propandiyl]]biscarbamic acid, bis(phenylmethyl) ester] | 58 | > 5000

Further lines, with some results ahead:

inhibition at 10 µM (HIV protease) [%] | Structure (SMILES) | IC50 [1] [nM]
89 | CC(C)(C)OC(=O)N[C@@H](Cc1ccccc1)[C@H](O)CNC[C@@H](O)[C@H](Cc1ccccc1)NC(=O)OC(C)(C)CNC=O [Compound 236, [1S-(1R*,2S*)]-[Iminobis[2-hydroxy-1-(phenylmethyl)-3,1-propanediyl]]biscarbamic acid, 2-(formylamino)-1,1-dimethylethyl 1,1-dimethylethyl ester] | 700
99 | CC(C)C(C)(NC(=O)OCc1ccccc1)C(=O)N[C@@H](Cc1ccccc1)[C@H](O)CNC[C@@H](O)[C@H](Cc1ccccc1)NC(=O)OC(C)(C)C (stereo partly drawn) [Compound 73, [(S,R)-3-[[(R,S)-3-[[2-[[(Phenyl-methoxy)carbonyl)amino]-2,3-dimethyl-1-oxy-butyl]amino]-2-hydroxy-4-phenylbutyl]amino]-2-hydroxy-1-(phenylmethyl)-propyl]carbamic acid, 1,1-dimethylethyl ester] | 600
99 | CC(C)(C)OC(=O)N[C@@H](Cc1ccccc1)[C@H](O)CNC[C@@H](O)[C@H](Cc1ccccc1)NC(=O)C(O)C(F)(F)F (single isomer, unassigned; isomer a) [Compound 271, [1S-[1R*,2S*(2S*,3R*)]]-[2-Hydroxy-1-(phenylmethyl)-3-[[2-hydroxy-4-phenyl-3-[(3,3,3-trifluoro-2-hydroxy-1-oxopropyl)amino]butyl]amino]-propyl]carbamic acid, 1,1-dimethylethyl ester (isomer A)] | 60
